The IC50 is the point on the concentration scale where inhibition reaches its midpoint.

Experimental findings from patent publication US20180282279A1, “Pantothenamide Analogues” (Radboud Universitair Medisch Centrum, priority 2014, published 2018) are described below.

In data set [1] the test system is P. falciparum gametocytes. The data set can be described thus: microbe, parasite or virus in culture. The data set is classed as cell-based, Plasmodium falciparum. As to conditions: for effect on gametocyte viability (pLDH activity): FIG. 4A; for IC50: 72 hour incubation, read-out: Gametocyte viability (pLDH) IC50; for extent of inhibition of gametocyte viability: compared with reference compound DHA. How it is done:
Compounds were tested for their ability to affect the viability of gametocytes, the sexually committed blood stages of P. falciparum that underlie transmission to the mosquito vector. To this end, two different assays were performed. The first assay monitored pLDH activity as a measure of viability of gametocytes (J Antimicrob Chemother. 2013 September; 68(9):2048-58). The second assay monitored the ability of gametocytes to form a female gamete by detection of the gamete-specific marker Pfs25. Plasmodium falciparum NF54 parasites were cultured in RPMI1640 medium supplemented with 367 μM hypoxanthine, 25 mM HEPES, 25 mM sodiumbicarbonate and 10% human type A serum in an automated large-scale culture system as described before (Transactions of the Royal Society of Tropical Medicine and Hygiene, 1982. 76: p. 812-818). Cultures were treated with 50 mM N-acetyl-D-glucosamine from day 4 till day 9 to kill asexual parasites. On day 11 gametocytes were isolated by discontinuous 63% Percoll gradient centrifugation. Compounds were diluted in DMSO and subsequently in culture medium to reach a DMSO concentration of 0.2%. To measure the effect of compounds of pLDH activity, gametocytes were seeded at a density of 3.5×10^4 gametocytes per well in a black 384 well plate in 30 μl of culture medium, and 30 μl of diluted compound was added. Following a 72 hour incubation at 37° C., 98% humidity, 93% N2, 4% CO2 and 3% O2, gametocyte viability was measured by a modified plasmodium lactate dehydrogenase assay by using resazurin as a substrate as previously described (Nature, 2013. 504(7479): p. 248-53). Assays were performed in quadruplicate (two different plates with two different gametocyte batches) and all plates included controls MIN (1 μM DHA), MAX (0.1% DMSO) and a serial dilution of reference compound dihydroartemisinin (DHA).

Data set [2] deals with P. falciparum asexual blood stage parasites. The data set can be described thus: Asexual replication assay in competition with pantothenate. Format: cell-based, Plasmodium falciparum. As to conditions: log dose ratio −1 vs log pantothenate concentration. How it is done:
FIG. 3: Competition between pantothenic acid and inverted-amide pantothenamide. Asexual replication assays were performed in combinations of pantothenic acid (PA) and CXP18.6-017 (A), CXP18.6-026 (B) and CXP18.6-052 (C). The relative number of parasites was determined by a Sybrgreen DNA detection method. Data are expressed relative to the MAX (0.1% DMSO) and MIN (10 μM DHA) controls. Error bars indicate standard deviations from two independent observations. D) S child regression analysis of combinations of CXP18.6-052 and pantothenic acid.
To study their interaction with pantothenate-dependent pathways, asexual replication assays were performed with CXP18.6-017, CXP18.6-026 and CXP18.6-052 in the presence of increasing amounts pantothenate. When combining a pantothenamide analogue and pantothenate in the same well the conditions were otherwise similar to the single compound assays described above, however the final DMSO concentration was 0.2%, which was also adjusted for the positive and negative controls.

The subject of data set [3] is P. falciparum gametocytes. The data set can be described thus: Gametocyte female gametogenesis capacity assay (Pfs25 AlphaLISA). Format: cell-based. As to conditions: Plasmodium falciparum, 72 hours incubation. How it is done: To monitor compound effects on the ability of a gametocyte to form a female gamete, day 11 (stage IV) gametocytes were seeded at a density of 4×10^5 gametocytes per well in a V-bottom plate in 50 μl culture medium. 50 μl of diluted compound was added to the gametocytes (0.1% DMSO final concentration) and plates were incubated for 72 hours at 37° C., 98% humidity, 93% N2, 4% CO2 and 3% O2. Subsequently, gametogenesis was induced by adding xanthurenic acid to a final concentration of 40 μM and plates were incubated for 16 hours at 20° C. Gametes were detected in a homogeneous proximity immunoassay on basis of Pfs25 expression by use of AlphaLISA technology (Perkin Elmer). All steps were performed at 20° C. Gametes were washed twice with PBS, lysed for 15 min in 10 μl 10 mM Tris pH 8.0/1% laurylsarcosyl/1 mM phenylmethanesulfonyl fluoride and combined with 10 μl 5 nM biotinylated mouse anti-Pfs25 monoclonal antibody 32F6244 in a white 384 well optiplate (Perkin Elmer). After 1 hour incubation 15 μl of 33 μg/ml acceptorbeads coated with mouse anti-Pfs25 monoclonal antibody 32F81 were added. After 1 hour incubation, 15 μl 33 μg/ml Streptavidin-conjugated donorbeads were added. Finally, after 1 hour incubation luminescence signals were monitored at the 615 nm emission wavelength following excitation at 680 nm using a fluorometer (Biotek Synergy 2). All compounds were tested in duplicate (24 hr) or triplicate (1 and 72 hr). Controls included MIN (0.1 μM epoxomicin) and MAX (0.1% DMSO). Data were analyzed by logistic regression using the formula: Y=Bottom+(Top−Bottom)/(1+10̂((Log IC50−X)*HillSlope)) and a least squares method to find the best fit.
For orientation: Alpha assays give light when donor and acceptor beads are brought close together.

In data set [4] the test system is Plasmodium falciparum NF54 parasites. Put plainly: P. falciparum asexual blood stage replication assay (SYBR Green). The data set is classed as cell-based. As to conditions: NF54, 10% human serum, 72 incubation. The procedure, abridged:
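NF54 parasites were cultured in RPMI1640 with 367 μM hypoxanthine, 25 mM HEPES, 25 mM NaHCO3 and 10% human type A serum, at 0.5% parasitaemia and 3% hematocrit. Compound, pre-diluted to 0.2% DMSO, was incubated with parasites for 72 h at 37 °C under 3% O2/5% CO2. Replication was read with SYBR Green, and IC50 came from a four-parameter logistic least-squares fit.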

The mark [5] stands for this setting: FIG. 4B, read-out: female gametogenesis capacity of gametocytes IC50.
[6] abbreviates: Table 3, read-out: Gametocyte gametogenesis capacity (Pfs25) IC50.

For `Cc1ccc(CCC(=O)NCCNC(=O)[C@H](O)C(C)(C)CO)cc1` [CXP18.6-026], in data set [1], the “effect on gametocyte viability (pLDH activity)” value (“effect on gametocyte viability” for short) is given as “dose dependently reduced gametocyte viability”. For the same compound, the IC50 in data set [1] (Plasmodium falciparum) came out at 170 nM; in data set [3] (setting [5]), 13 nM; in data set [3] (setting [6]), 13 nM; in data set [4], 0.16 µM. Moreover, the “extent of inhibition of gametocyte viability” value in data set [1] is given as “to the same extent as the reference compound DHA”. Also, the “Schild regression analysis with pantothenate” value (shortened to “Schild regression analysis”) in data set [2] is “did not reveal a linear correlation”.
On to `CC(C)(CO)[C@@H](O)C(=O)NCCNC(=O)CCc1ccccc1F` [CXP18.6-017], for which the “effect on gametocyte viability” value in data set [1] is given as “dose dependently reduced gametocyte viability”. The IC50 worked out at 100 nM in data set [1] (Plasmodium falciparum), 37 nM in data set [3] (setting [5]), 36 nM in data set [3] (setting [6]) and 0.022 µM in data set [4]. For the same compound, the “extent of inhibition of gametocyte viability” value in data set [1] is recorded as “to the same extent as the reference compound DHA”. Besides, the “Schild regression analysis” value in data set [2] is given as “did not reveal a linear correlation”.
As to `CC(C)(CO)[C@@H](O)C(=O)NCCNC(=O)CCc1cccnc1` [CXP18.6-052], the “effect on gametocyte viability” value in data set [1] is reported as “dose dependently reduced gametocyte viability”. In addition, the “maximum inhibition of gametocyte viability” value in data set [1] (Plasmodium falciparum, 72 h) was around 50%. For the same compound, the “Schild regression analysis” value in data set [2] is listed as “competitive antagonism”. Also, the half-inhibitory concentration (IC50) was determined as 1970 nM in data set [3] (setting [5]) and 0.008 µM in data set [4].
With `CC(C)(CO)[C@@H](O)C(=O)NCCNC(=O)CCc1ccccc1` [CXP18.6-006], the figures for the half-maximal inhibitory concentration (IC50) in data set [1] (Plasmodium falciparum), in data set [3] (setting [6]) and in data set [4] were above 10000 nM, 478 nM and 0.12 µM, respectively.
